Measurements as given in patent US20230339886A1 (University of Florida Research Foundation, Incorporated, priority 2020, published 2023).

Molecular target: T1, REV-ERBα LBD (human; residues 281-614 Δ324-422) (Homo sapiens, UniProt P20393, DEL324-422)
T1 construct: 6×Histag-REV-ERBα LBD (human; residues 281-614 Δ324-422); made in house; host or cells: Escherichia coli
Assay: TR-FRET corepressor interaction assay (REV-ERBα LBD, FITC-SMRT peptide)
Assay type: biochemical
Details: Table 2, read-out: REVERBα agonism (EC50 class, FRET assay)
Summary of the method: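 Compound serial dilutions (in DMSO, triplicate) incubated 2 h at 4 °C; Tb donor excited at 340 nm, emission read at 495 nm and FITC acceptor at 520 nm. TR-FRET ratio (520/495 nm) plotted against ligand concentration and fitted to a sigmoidal dose-response curve.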

T1 sequence (P20393 with tags, fused parts or gaps DEL324-422): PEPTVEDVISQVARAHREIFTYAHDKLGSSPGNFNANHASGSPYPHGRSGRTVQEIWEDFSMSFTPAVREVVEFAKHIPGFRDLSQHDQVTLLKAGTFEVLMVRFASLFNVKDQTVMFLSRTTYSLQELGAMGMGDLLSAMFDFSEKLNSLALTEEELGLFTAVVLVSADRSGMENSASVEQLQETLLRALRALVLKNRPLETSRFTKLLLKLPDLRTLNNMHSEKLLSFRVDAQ
T1 sequence (Q9Y618 2335-2356 partner limits assumed): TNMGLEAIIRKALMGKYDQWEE

| EC50 | SMILES |
| --- | --- |
| < 500 nM | CC(C)(C)Cn1cc([C@H](NS(=O)(=O)N2CCC2)C(F)(F)F)c2cc(F)c(-c3ccccc3C(F)(F)F)cc21 [Example 346, (S)—N-(2,2,2-trifluoro-1-(5-fluoro-1-neopentyl-6-(2-(trifluoromethyl)phenyl)-1H-indol-3-yl)ethyl)azetidine-1-sulfonamide] |
| < 500 nM | CC(C)(C)Cn1cc([C@H](NS(=O)(=O)N2CCCC2)C(F)(F)F)c2cc(F)c(-c3ccccc3C(F)(F)F)cc21 [Example 347, (S)—N-(2,2,2-trifluoro-1-(5-fluoro-1-neopentyl-6-(2-(trifluoromethyl)phenyl)-1H-indol-3-yl)ethyl)pyrrolidine-1-sulfonamide] |
| 500 to 3000 nM | CC(C)S(=O)(=O)N[C@@H](c1cn(CC(C)(C)C)c2cc(-c3ccccc3C(F)(F)F)c(F)cc12)C(F)(F)F [Example 348, (S)—N-(2,2,2-trifluoro-1-(5-fluoro-1-neopentyl-6-(2-(trifluoromethyl)phenyl)-1H-indol-3-yl)ethyl)propane-2-sulfonamide] |
| < 500 nM | O=S(=O)(N[C@@H](c1cn(CC2CC2)c2cc(-c3ccccc3C(F)(F)F)c(F)cc12)C(F)(F)F)C1CC1 [Example 349, (S)—N-(1-(1-(cyclopropylmethyl)-5-fluoro-6-(2-(trifluoromethyl)phenyl)-1H-indol-3-yl)-2,2,2-trifluoroethyl)cyclopropanesulfonamide] |
| < 500 nM | CC(C)(C)Cn1cc([C@H](NS(=O)(=O)C2CC2)C(F)(F)F)c2cc(F)c(-c3c(F)cccc3C(F)(F)F)cc21 [Example 351, N-((1S)-2,2,2-trifluoro-1-(5-fluoro-6-(2-fluoro-6-(trifluoromethyl)phenyl)-1-neopentyl-1H-indol-3-yl)ethyl)cyclopropanesulfonamide] |
| < 500 nM | Cc1c(-c2ccccc2C(F)(F)F)ccc2c([C@H](NS(=O)(=O)C3CC3)C(F)(F)F)cn(CC(C)(C)C)c12 [Example 353, (S)—N-(2,2,2-trifluoro-1-(7-methyl-1-neopentyl-6-(2-(trifluoromethyl)phenyl)-1H-indol-3-yl)ethyl)cyclopropanesulfonamide] |
| < 500 nM | CC(C)(C)Cn1cc([C@H](NS(=O)(=O)C2CC2)C(F)(F)F)c2cc(F)c(-c3ccc(F)cc3C(F)(F)F)cc21 [Example 355, (S)—N-(2,2,2-trifluoro-1-(5-fluoro-6-(4-fluoro-2-(trifluoromethyl)phenyl)-1-neopentyl-1H-indol-3-yl)ethyl)cyclopropanesulfonamide] |
| 500 to 3000 nM | CC(C)(C)Cn1cc([C@H](NS(=O)(=O)C2CC2)C(F)(F)F)c2cc(C(F)(F)F)c(-c3ccccc3C(F)(F)F)cc21 [Example 357, (S)—N-(2,2,2-trifluoro-1-(1-neopentyl-5-(trifluoromethyl)-6-(2-(trifluoromethyl)phenyl)-1H-indol-3-yl)ethyl)cyclopropanesulfonamide] |
| < 500 nM | CC(C)(C)Cn1cc([C@H](NS(=O)(=O)C2CC2)C(F)(F)F)c2cc(F)c(-c3cccc(F)c3C(F)(F)F)cc21 [Example 360, (S)—N-(2,2,2-trifluoro-1-(5-fluoro-6-(3-fluoro-2-(trifluoromethyl)phenyl)-1-neopentyl-1H-indol-3-yl)ethyl)cyclopropanesulfonamide] |
| 500 to 3000 nM | CC(C)(C)Cn1cc([C@H](NS(=O)(=O)C(C)(C)C)C(F)(F)F)c2cc(F)c(-c3ccccc3C(F)(F)F)cc21 [Example 366, (S)-2-methyl-N-(2,2,2-trifluoro-1-(5-fluoro-1-neopentyl-6-(2-(trifluoromethyl)phenyl)-1H-indol-3-yl)ethyl)propane-2-sulfonamide] |
| 500 to 3000 nM | CNS(=O)(=O)N[C@@H](c1cn(CC(C)(C)C)c2cc(-c3ccccc3C(F)(F)F)c(F)cc12)C(F)(F)F [Example 371] |
| 500 to 3000 nM | CC(C)(C)Cn1cc([C@H](NS(=O)(=O)C2CCCC2)C(F)(F)F)c2cc(F)c(-c3ccccc3C(F)(F)F)cc21 [Example 372, (S)—N-(2,2,2-trifluoro-1-(5-fluoro-1-neopentyl-6-(2-(trifluoromethyl)phenyl)-1H-indol-3-yl)ethyl)cyclopentanesulfonamide] |
| < 500 nM | CC(C)(C)Cn1cc([C@H](NS(=O)(=O)C2CCC2)C(F)(F)F)c2cc(F)c(-c3ccccc3C(F)(F)F)cc21 [Example 374, (S)—N-(2,2,2-trifluoro-1-(5-fluoro-1-neopentyl-6-(2-(trifluoromethyl)phenyl)-1H-indol-3-yl)ethyl)cyclobutanesulfonamide] |
| < 500 nM | CC(C)(C)Cn1cc([C@H](NS(=O)(=O)C2(C)CC2)C(F)(F)F)c2cc(F)c(-c3ccccc3C(F)(F)F)cc21 [Example 375, (S)-1-methyl-N-(2,2,2-trifluoro-1-(5-fluoro-1-neopentyl-6-(2-(trifluoromethyl)phenyl)-1H-indol-3-yl)ethyl)cyclopropane-1-sulfonamide] |

The remaining lines, values behind:

| SMILES | EC50 |
| --- | --- |
| CC(C)c1cc2c(cc1F)c([C@H](NS(=O)(=O)C1CC1)C(F)(F)F)cn2CC(C)(C)C [Example 336, (S)—N-(2,2,2-trifluoro-1-(5-fluoro-6-isopropyl-1-neopentyl-1H-indol-3-yl)ethyl)cyclopropanesulfonamide] | 500 to 3000 nM |
| CC(C)c1cc2c(cc1F)c([C@H](NS(=O)(=O)N(C)C)C(F)(F)F)cn2CC(C)(C)C [Example 337, {[(1S)-1-[1-(2,2-dimethylpropyl)-5-fluoro-6-(propan-2-yl)-1H-indol-3-yl]-2,2,2-trifluoroethyl]sulfamoyl}dimethylamine] | 500 to 3000 nM |
| CN(C)S(=O)(=O)N[C@@H](c1cn(CC(C)(C)C)c2cc(-c3ccccc3Cl)ccc12)C(F)(F)F [Example 338, {[(1S)-1-[6-(2-chlorophenyl)-1-(2,2-dimethylpropyl)-1H-indol-3-yl]-2,2,2-trifluoroethyl]sulfamoyl}dimethylamine] | < 500 nM |
| CC(C)Cn1cc([C@H](NS(=O)(=O)N(C)C)C(F)(F)F)c2ccc(C(C)C)cc21 [Example 339, dimethyl({[(1S)-2,2,2-trifluoro-1-[1-(2-methylpropyl)-6-(propan-2-yl)-1H-indol-3-yl]ethyl]sulfamoyl})amine] | < 500 nM |
| CC(C)Cn1cc([C@H](NS(=O)(=O)C2CC2)C(F)(F)F)c2ccc(Cl)cc21 [Example 341, (S)—N-(1-(6-chloro-1-isobutyl-1H-indol-3-yl)-2,2,2-trifluoroethyl)cyclopropanesulfonamide] | < 500 nM |
| CC(C)(C)Cn1cc([C@H](NS(=O)(=O)C2CC2)C(F)(F)F)c2ccc(Br)cc21 [Example 343, (S)—N-(1-(6-bromo-1-neopentyl-1H-indol-3-yl)-2,2,2-trifluoroethyl)cyclopropanesulfonamide] | < 500 nM |
| CC(C)(C)Cn1cc([C@H](NS(=O)(=O)C2CC2)C(F)(F)F)c2cc(F)c(-c3ccccc3)cc21 [Example 350, (S)—N-(2,2,2-trifluoro-1-(5-fluoro-1-neopentyl-6-phenyl-1H-indol-3-yl)ethyl)cyclopropanesulfonamide] | 500 to 3000 nM |
| CC(C)(C)Cn1cc([C@H](NS(=O)(=O)C2CC2)C(F)(F)F)c2cc(F)c(-c3ccncc3Cl)cc21 [Example 361, (S)—N-(1-(6-(3-chloropyridin-4-yl)-5-fluoro-1-neopentyl-1H-indol-3-yl)-2,2,2-trifluoroethyl)cyclopropanesulfonamide] | < 500 nM |
| CC(C)(C)Cn1cc([C@H](NS(=O)(=O)C2CC2)C(F)(F)F)c2ccc(-c3ccc(F)cc3C(F)(F)F)cc21 [Example 367, (S)—N-(2,2,2-trifluoro-1-(6-(4-fluoro-2-(trifluoromethyl)phenyl)-1-neopentyl-1H-indol-3-yl)ethyl)cyclopropanesulfonamide] | < 500 nM |
| Cc1c(Br)ccc2c([C@H](NS(=O)(=O)C3CC3)C(F)(F)F)cn(CC(C)(C)C)c12 [Example 368, (S)—N-(1-(6-bromo-7-methyl-1-neopentyl-1H-indol-3-yl)-2,2,2-trifluoroethyl)cyclopropanesulfonamide] | 500 to 3000 nM |
| CC(C)(C)Cn1cc([C@H](NS(=O)(=O)C2CC2)C(F)(F)F)c2ccc(Br)c(F)c21 [Example 369, (S)—N-(1-(6-bromo-7-fluoro-1-neopentyl-1H-indol-3-yl)-2,2,2-trifluoroethyl)cyclopropanesulfonamide] | 500 to 3000 nM |
| CC(C)Cn1cc([C@H](NS(=O)(=O)C2CC2)C(F)(F)F)c2ccc(-c3ccnn3C)cc21 [Example 370, (S)—N-(2,2,2-trifluoro-1-(1-isobutyl-6-(1-methyl-1H-pyrazol-5-yl)-1H-indol-3-yl)ethyl)cyclopropanesulfonamide] | < 500 nM |
| CC(C)(C)Cn1cc([C@H](NS(=O)(=O)C2CC2)C(F)(F)F)c2ccc(-c3c(F)cccc3C(F)(F)F)cc21 [Example 373, (S)—N-(2,2,2-trifluoro-1-(6-(2-fluoro-6-(trifluoromethyl)phenyl)-1-neopentyl-1H-indol-3-yl)ethyl)cyclopropanesulfonamide] | < 500 nM |
| CC(C)(C)Cn1cc([C@H](NS(=O)(=O)C2CC2)C(F)(F)F)c2cc(C(F)(F)F)c(Br)cc21 [Example 376, (S)—N-(1-(6-bromo-1-neopentyl-5-(trifluoromethyl)-1H-indol-3-yl)-2,2,2-trifluoroethyl)cyclopropanesulfonamide] | > 3000 nM |
| CC(C)Cn1cc([C@H](NS(=O)(=O)C2CC2)C(F)(F)F)c2cc(F)c(-c3ccn[nH]3)cc21 [Example 377, (S)—N-(2,2,2-trifluoro-1-(5-fluoro-1-isobutyl-6-(1H-pyrazol-5-yl)-1H-indol-3-yl)ethyl)cyclopropanesulfonamide] | 500 to 3000 nM |
| CC(C)(C)Cn1cc([C@H](NS(=O)(=O)C2CC2)C(F)(F)F)c2cc(F)c(-c3ccn[nH]3)cc21 [Example 380, N-[(1S)-1-[1-(2,2-dimethylpropyl)-5-fluoro-6-(1H-pyrazol-5-yl)indol-3-yl]-2,2,2-trifluoro-ethyl]cyclopropanesulfonamide] | < 500 nM |
